The results in this text go back to patent US10144709B2, “Piperidine compounds, pharmaceutical composition comprising the same and its use” (SK BIOPHARMACEUTICALS CO., LTD., priority 2008, dated 2018).

Structures can show the parent of a compound that is named as a salt.

The test system of the assay is ICR CD strain male mice. Description: Gastric emptying enhancing activity (phenol red meal). It is filed as in vivo. The settings on record: Mus musculus, ip, 0.25 h, 3.0 mg/kg i.p., gastric emptying at 15 min after test meal, increase vs vehicle. How it is done:
ICR CD strain male mice (body weight, 25˜30 g; 8 mice per one group) were fasted for 24 h but allowed free access to water until 3 hours before the test.
Compounds to be tested for promoting GI motility were injected intraperitoneally or given orally at 30 min or 60 min prior to phenol red meal administration. Fifteen (15) min after administration of a test meal (0.5% Phenol red in 1.5% methylcellulose solution), mice were sacrificed and the stomach (pylorus˜cardia) was removed and collected to vial. The stomach was homogenized with its contents in 0.1N NaOH and the mixture was centrifuged (700*g) for 20 min. 2.5 mL of the supernatant was added to 0.25 mL of trichloroacetic acid solution (20% w/v) to precipitate proteins. After centrifuging (2600*g) for 20 min, 0.5 mL of the supernatant was added to 0.25 mL of 1N NaOH. The mixture was homogenized and its absorbance (Abs) was read at 560 nm.
In each experiment, one group was sacrificed just after the administration of the test meal and was considered as a standard (0% emptying). The gastric emptying (GE) at the 15 min period was calculated according to the following formula. GE (%)=(1−Abstest/Absstandard)×100 Increase (%)=(GE %test−GE %vehicle)/GE %vehicle*100
In the case of `COc1cc(N)c(Cl)cc1C(=O)NCC1CCN(CC(O)c2ccc(F)c(F)c2)CC1` (stereo not shown) [Example 17, 4-amino-5-chloro-N-[[1-[2-(3,4-difluorophenyl)-2-hydroxyethyl]piperidin-4-yl]methyl]-2-methoxybenzamide; hydrochloride], the change in vivo at 3 mg/kg came to 22.1%.
Take `COc1cc(N)c(Cl)cc1C(=O)NCC1CCN(CC(COc2ccc(Cl)cc2Cl)NC(=O)O)CC1` (stereo not shown) [Example 96, [1-[4-[[(4-amino-5-chloro-2-methoxybenzoyl)amino]methyl]piperidin-1-yl]-3-(2,4-dichlorophenoxy)propan-2-yl]carbamate; hydrochloride]: the change in vivo at 3 mg/kg was determined as 105%.
On to `COc1cc(N)c(Cl)cc1C(=O)NCC1CCN(CC(Cc2ccccc2)NC(=O)O)CC1` (stereo not shown) [Example 103, [1-[4-[[(4-amino-5-chloro-2-methoxybenzoyl)amino]methyl]piperidin-1-yl]-3-phenylpropan-2-yl]carbamate; hydrochloride], for which the change in vivo at 3 mg/kg stood at 88.8%.
To `CC(C)n1c(=O)n(C(=O)NCC2CCN(CCC(O)c3ccccc3)CC2)c2ccccc21` (stereo not shown) [Example 136, N-[[1-(3-hydroxy-3-phenylpropyl)piperidin-4-yl]methyl]-2-oxo-3-propan-2-ylbenzimidazole-1-carboxamide; hydrochloride] belongs 64.1%; to `COc1ccc(C(O)CN2CCC(CNC(=O)c3cc(Cl)c(N)cc3OC)CC2)cc1` (stereo not shown) [Example 4, 4-amino-5-chloro-N-[[1-[2-hydroxy-2-(4-methoxyphenyl)ethyl]piperidin-4-yl]methyl]-2-methoxybenzamide; hydrochloride], 74.1%; to `Cn1c(=O)n(C(=O)NCC2CCN(CC(COc3ccccc3)NC(=O)O)CC2)c2ccccc21` (stereo not shown) [Example 126, [1-[4-[[(3-methyl-2-oxobenzimidazole-1-carbonyl)amino]methyl]piperidin-1-yl]-3-phenoxypropan-2-yl]carbamate; hydrochloride], 93.3%.
In the case of `COc1cc(N)c(Cl)cc1C(=O)NCC1CCN(CCC(O)c2ccc(C(C)C)cc2)CC1` (stereo not shown) [Example 48, 4-amino-5-chloro-N-[[1-[3-(4-isopropylphenyl)-3-hydroxypropyl]piperidin-4-yl]methyl]-2-methoxybenzamide; hydrochloride], the change in vivo at 3 mg/kg was 3.5%.
On to `COc1cc(N)c(Cl)cc1C(=O)NCC1CCN(CCC(O)CCc2ccc(F)cc2)CC1` (stereo not shown) [Example 52, 4-amino-5-chloro-N-[[1-[5-(4-fluorophenyl)-3-hydroxypentyl]piperidin-4-yl]methyl]-2-methoxybenzamide; hydrochloride], for which the change in vivo at 3 mg/kg was found to be 131%.
With `COc1cc(N)c(Cl)cc1C(=O)NCC1CCN(CCC(O)c2cccs2)CC1` (stereo not shown) [Example 50, 4-amino-5-chloro-N-[[1-(3-hydroxy-3-thiophen-2-ylpropyl)piperidin-4-yl]methyl]-2-methoxybenzamide; hydrochloride], the change in vivo at 3 mg/kg was determined as 3.9%.
Take `CC(C)n1c(=O)n(C(=O)NCC2CCN(CC(O)COc3ccccc3)CC2)c2ccccc21` (stereo not shown) [Example 104, N-[[1-(2-hydroxy-3-phenoxypropyl)piperidin-4-yl]methyl]-2-oxo-3-propan-2-ylbenzimidazole-1-carboxamide; hydrochloride]: the change in vivo at 3 mg/kg came out at 81%.
Consider `Cc1ccccc1OCC(CN1CCC(CNC(=O)n2c(=O)n(C(C)C)c3ccccc32)CC1)NC(=O)O` (stereo not shown) [Example 123, [1-(2-methylphenoxy)-3-[4-[[(2-oxo-3-propan-2-ylbenzimidazole-1-carbonyl)amino]methyl]piperidin-1-yl]propan-2-yl]carbamate; hydrochloride], for which the change in vivo at 3 mg/kg is 56.8%.
Then `COc1cc(N)c(Cl)cc1C(=O)NCC1CCN(CCC(O)c2ccc(C)cc2)CC1` (stereo not shown) [Example 39, 4-amino-5-chloro-N-[[1-[3-hydroxy-3-(4-methylphenyl)propyl]piperidin-4-yl]methyl]-2-methoxybenzamide; hydrochloride], with 40%; and `COc1cc(N)c(Cl)cc1C(=O)NCC1CCN(CC(COc2ccc(F)cc2)OC(=O)N2CC(C)CC(C)C2)CC1` (stereo not shown) [Example 89, [1-[4-[[(4-amino-5-chloro-2-methoxybenzoyl)amino]methyl]piperidin-1-yl]-3-(4-fluorophenoxy)propan-2-yl]3,5-dimethylpiperidine-1-carboxylate; hydrochloride], with 45.3%; and `COc1cc(N)c(Cl)cc1C(=O)NCC1CCN(CCC(O)c2ccc(F)cc2)CC1` (stereo not shown) [Example 37, 4-amino-5-chloro-N-[[1-[3-(4-fluorophenyl)-3-hydroxypropyl]piperidin-4-yl]methyl]-2-methoxybenzamide; hydrochloride], with 70.7%.
Consider `COc1cc(N)c(Cl)cc1C(=O)NCC1CCN(CC(O)c2ccccc2Cl)CC1` (stereo not shown) [Example 13, 4-amino-5-chloro-N-[[1-[2-(2-chlorophenyl)-2-hydroxyethyl]piperidin-4-yl]methyl]-2-methoxybenzamide; hydrochloride], for which the change in vivo at 3 mg/kg amounted to 14%.
To `COc1cccc(C(O)CN2CCC(CNC(=O)c3cc(Cl)c(N)cc3OC)CC2)c1` (stereo not shown) [Example 9, 4-amino-5-chloro-N-[[1-[2-hydroxy-2-(3-methoxyphenyl)ethyl]piperidin-4-yl]methyl]-2-methoxybenzamide; hydrochloride] belongs 55.8%.
Then `COc1cc(N)c(Cl)cc1C(=O)NCC1CCN(CC(COc2c(Cl)cccc2Cl)NC(=O)O)CC1` (stereo not shown) [Example 98, [1-[4-[[(4-amino-5-chloro-2-methoxybenzoyl)amino]methyl]piperidin-1-yl]-3-(2,6-dichlorophenoxy)propan-2-yl]carbamate; hydrochloride], with 63.6%; and `COc1cc(N)c(Cl)cc1C(=O)NCC1CCN(CC(O)c2ccc(C#N)cc2)CC1` (stereo not shown) [Example 5, 4-amino-5-chloro-N-[[1-[2-(4-cyanophenyl)-2-hydroxyethyl]piperidin-4-yl]methyl]-2-methoxybenzamide; hydrochloride], with 76.1%; and `COc1cc(N)c(Cl)cc1C(=O)NCC1CCN(CCC(NC(=O)O)c2cccc(Cl)c2Cl)CC1` (stereo not shown) [Example 59, [3-[4-[[(4-amino-5-chloro-2-methoxybenzoyl)amino]methyl]piperidin-1-yl]-1-(2,3-dichlorophenyl)propyl]carbamate; hydrochloride], with 48%.
Turning to `COc1cc(N)c(Cl)cc1C(=O)NCC1CCN(CC(O)c2ccc(OC(F)F)cc2)CC1` (stereo not shown) [Example 16, 4-amino-5-chloro-N-[[1-[2-[4-(difluoromethoxy)phenyl]-2-hydroxyethyl]piperidin-4-yl]methyl]-2-methoxybenzamide; hydrochloride], the change in vivo at 3 mg/kg is 53.6%.
Then `COc1cc(N)c(Cl)cc1C(=O)NCC1CCN(CCC(NC(=O)O)c2ccccc2)CC1` (stereo not shown) [Example 53, [3-[4-[[(4-amino-5-chloro-2-methoxybenzoyl)amino]methyl]piperidin-1-yl]-1-phenylpropyl]carbamate; hydrochloride], with 28.4%.
As to `COc1cc(N)c(Cl)cc1C(=O)NCC1CCN(CCC(NC(=O)O)c2ccccc2Cl)CC1` (stereo not shown) [Example 56, [3-[4-[[(4-amino-5-chloro-2-methoxybenzoyl)amino]methyl]piperidin-1-yl]-1-(2-chlorophenyl)propyl]carbamate; hydrochloride], the change in vivo at 3 mg/kg was 135%.
Then `COc1ccc(C(O)CCN2CCC(CNC(=O)c3cc(Cl)c(N)cc3OC)CC2)cc1` (stereo not shown) [Example 40, 4-amino-5-chloro-N-[[1-[3-hydroxy-3-(4-methoxyphenyl)propyl]piperidin-4-yl]methyl]-2-methoxybenzamide; hydrochloride], with 51.6%; and `COc1cc(N)c(Cl)cc1C(=O)NCC1CCN(CCC(NC(=O)O)c2ccc(Cl)c(Cl)c2)CC1` (stereo not shown) [Example 61, [3-[4-[[(4-amino-5-chloro-2-methoxybenzoyl)amino]methyl]piperidin-1-yl]-1-(3,4-dichlorophenyl)propyl]carbamate; hydrochloride], with 44.3%.
Regarding `CC(C)n1c(=O)n(C(=O)NCC2CCN(CC(COc3ccc(F)cc3)NC(=O)O)CC2)c2ccccc21` (stereo not shown) [Example 122, [1-(4-fluorophenoxy)-3-[4-[[(2-oxo-3-propan-2-ylbenzimidazole-1-carbonyl)amino]methyl]piperidin-1-yl]propan-2-yl]carbamate; hydrochloride], the change in vivo at 3 mg/kg is 6.8%.
In the case of `COc1cc(N)c(Cl)cc1C(=O)NCC1CCN(CCC(O)c2ccc(Cl)cc2Cl)CC1` (stereo not shown) [Example 46, 4-amino-5-chloro-N-[[1-[3-(2,4-dichlorophenyl)-3-hydroxypropyl]piperidin-4-yl]methyl]-2-methoxybenzamide; hydrochloride], the change in vivo at 3 mg/kg worked out at 45.9%.
Turning to `COc1cc(N)c(Cl)cc1C(=O)NCC1CCN(CCC(O)c2cccc(Cl)c2Cl)CC1` (stereo not shown) [Example 45, 4-amino-5-chloro-N-[[1-[3-(2,3-dichlorophenyl)-3-hydroxypropyl]piperidin-4-yl]methyl]-2-methoxybenzamide; hydrochloride], the change in vivo at 3 mg/kg was determined as 51.4%.
Then `COc1cc(N)c(Cl)cc1C(=O)NCC1CCN(CCC(O)c2ccccc2F)CC1` (stereo not shown) [Example 43, 4-amino-5-chloro-N-[[1-[3-(2-fluorophenyl)-3-hydroxypropyl]piperidin-4-yl]methyl]-2-methoxybenzamide; hydrochloride], with 46.1%.
